Where a name gives a salt, the structure may show the parent alone.
Biological target: T1, HCV polymerase (Hepatitis C virus genotype 1b, UniProt P26663)
T1 construct: a region encoding NS5B (J Virol 1991 March, 65(3), 1105-13, 544 amino acids after deletion of 47 amino acids on the C-terminal); 6xHis (C); made in house; host or cells: Escherichia coli
Experiment: biochemical
Parameters: species or system HCV BK strain
Method in brief: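 Recombinant HCV BK-strain NS5B (C-terminal 47 aa deleted, His6-tagged, E. coli), 0.5 μg/ml, run with 5 μg/ml in vitro-transcribed RNA template (polyU/3′X), ATP/GTP/CTP 50 μM, UTP 2 μM plus [3H]UTP, pH 7.5, 25° C, 90 min. TCA-precipitated RNA counted by scintillation; IC50 from activity with vs without compound.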

T1 sequence (P26663 2420-2963): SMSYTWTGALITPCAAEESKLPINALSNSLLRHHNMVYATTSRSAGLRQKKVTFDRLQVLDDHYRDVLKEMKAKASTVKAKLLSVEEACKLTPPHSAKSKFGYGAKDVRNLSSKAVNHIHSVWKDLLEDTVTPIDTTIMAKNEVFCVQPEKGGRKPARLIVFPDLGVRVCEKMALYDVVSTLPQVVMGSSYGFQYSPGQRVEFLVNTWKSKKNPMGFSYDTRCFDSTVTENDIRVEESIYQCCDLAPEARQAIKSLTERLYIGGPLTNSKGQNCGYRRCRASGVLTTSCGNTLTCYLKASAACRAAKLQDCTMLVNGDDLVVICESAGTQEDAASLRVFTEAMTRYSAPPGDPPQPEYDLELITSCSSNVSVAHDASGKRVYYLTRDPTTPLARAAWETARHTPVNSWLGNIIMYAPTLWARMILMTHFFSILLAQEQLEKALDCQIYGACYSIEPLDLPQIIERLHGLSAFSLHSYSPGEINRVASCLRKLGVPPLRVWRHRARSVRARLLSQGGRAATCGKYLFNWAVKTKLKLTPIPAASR

Compound	IC50 [nM]
COc1ccc2c(c1)OCCn1c-2c(C2CCCCC2)c2ccc(C(=O)NC(C)(C)c3ccc(CC(N)C(=O)O)cc3)cc21 (centres unmarked) [Example 2-444, 2-amino-3-(4-{1-[(12-cyclohexyl-3-methoxy-6,7-dihydro-5-oxa-7a-azadibenzo[a,e]azulene-9-carbonyl)amino]-1-methylethyl}phenyl)propionic acid]	< 100
COc1ccc2c(c1)OCCn1c-2c(C2CCCCC2)c2ccc(C(=O)NC3(c4nc5ccc(C(C)(C)C(=O)O)cc5[nH]4)CCC3)cc21 [Example 2-445, 2-(2-{1-[(12-cyclohexyl-3-methoxy-6,7-dihydro-5-oxa-7a-azadibenzo[a,e]azulene-9-carbonyl)amino]cyclobutyl}-3H-benzimidazol-5-yl)-2-methylpropionic acid]	< 100
CCOc1ccc2c(c1)OCCn1c-2c(C2CCCCC2)c2ccc(C(=O)NC3(C(=O)Nc4ccc(/C=C/C(=O)O)cc4)CCC3)cc21 [Example 2-446, (E)-3-[4-({1-[(12-cyclohexyl-3-ethoxy-6,7-dihydro-5-oxa-7a-azadibenzo[a,e]azulene-9-carbonyl)amino]cyclobutanecarbonyl}amino)phenyl]acrylic acid]	< 100
COc1ccc2c(c1)OCCn1c-2c(C2CCCCC2)c2ccc(C(=O)NC3(c4nc5cc(C(C)(C)O)c(OC)cc5[nH]4)CCC3)cc21 [Example 2-447, N-{1-[5-(1-hydroxy-1-methylethyl)-6-methoxy-1H-benzimidazol-2-yl]cyclobutyl}-12-cyclohexyl-3-methoxy-6,7-dihydro-5-oxa-7a-azadibenzo[a,e]azulene-9-carboxamide]	< 100
COc1ccc2c(c1)OCCn1c-2c(C2CCCCC2)c2ccc(C(=O)NC3(C(=O)Nc4ccc5nc[nH]c5c4)CCC3)cc21 [Example 2-448, N-[1-(3H-benzimidazol-5-ylcarbamoyl)cyclobutyl]-12-cyclohexyl-3-methoxy-6,7-dihydro-5-oxa-7a-azadibenzo[a,e]azulene-9-carboxamide]	< 100
COc1ccc2c(c1)OCCn1c-2c(C2CCCCC2)c2ccc(C(=O)NC3(c4nc5ccc(C(=O)O)cc5[nH]4)CCN(C)CC3)cc21 [Example 2-449, 2-{4-[(12-cyclohexyl-3-methoxy-6,7-dihydro-5-oxa-7a-azadibenzo[a,e]azulene-9-carbonyl)amino]-1-methylpiperidin-4-yl}-3H-benzimidazole-5-carboxylic acid]	< 100
COc1ccc2c(c1)OCCn1c-2c(C2CCCCC2)c2ccc(C(=O)N[C@@H](Cc3ccc(O)cc3)C3=NCCN3)cc21 [Example 2-450, N—[(S)-1-(4,5-dihydro-1H-imidazol-2-yl)-2-(4-hydroxyphenyl)ethyl]-12-cyclohexyl-3-methoxy-6,7-dihydro-5-oxa-7a-azadibenzo[a,e]azulene-9-carboxamide]	< 100
COc1ccc2c(c1)OCCn1c-2c(C2CCCCC2)c2ccc(C(=O)NC3(C(=O)Nc4ccc(/C=C/C(=O)O)cc4OC)CCC3)cc21 [Example 2-451, (E)-3-[4-({1-[(12-cyclohexyl-3-methoxy-6,7-dihydro-5-oxa-7a-azadibenzo[a,e]azulene-9-carbonyl)amino]cyclobutanecarbonyl}amino)-3-methoxyphenyl]acrylic acid]	< 100
COc1ccc2c(c1)OCCn1c-2c(C2CCCCC2)c2ccc(C(=O)N[C@@H](Cc3ccc(O)cc3)C(=O)OC(C)(C)C)cc21 [Example 2-452, tert-butyl (S)-2-[(12-cyclohexyl-3-methoxy-6,7-dihydro-5-oxa-7a-azadibenzo[a,e]azulene-9-carbonyl)amino]-3-(4-hydroxyphenyl)propionate]	< 100
COc1ccc2c(c1)OCCn1c-2c(C2CCCCC2)c2ccc(C(=O)N[C@@H](Cc3ccc(O)cc3)c3nc(=O)on3C)cc21 [Example 2-453, N—[(S)-2-(4-hydroxyphenyl)-1-(2-methyl-5-oxo-2,5-dihydro-1,2,4-oxadiazol-3-yl)ethyl]-12-cyclohexyl-3-methoxy-6,7-dihydro-5-oxa-7a-azadibenzo[a,e]azulene-9-carboxamide]	< 100
COc1ccc2c(c1)OCCn1c-2c(C2CCCCC2)c2ccc(C(=O)N[C@@H](Cc3ccc(O)cc3)c3nnnn3C)cc21 [Example 2-454, N—[(S)-2-(4-hydroxyphenyl)-1-(1-methyl-1H-tetrazol-5-yl)ethyl]-12-cyclohexyl-3-methoxy-6,7-dihydro-5-oxa-7a-azadibenzo[a,e]azulene-9-carboxamide]	< 100
COc1ccc2c(c1)OCCn1c-2c(C2CCCCC2)c2ccc(C(=O)NC3(c4nc5cc(OCC(=O)O)ccc5[nH]4)CCC3)cc21 [Example 2-455, (2-{1-[(12-cyclohexyl-3-methoxy-6,7-dihydro-5-oxa-7a-azadibenzo[a,e]azulene-9-carbonyl)amino]cyclobutyl}-1H-benzimidazol-5-yloxy)acetic acid]	< 100
CCN1CCN(CCOc2cccc3c2OCCn2c-3c(C3CCCCC3)c3ccc(C(=O)O)cc32)CC1 [Example 2-456, 12-cyclohexyl-4-[2-(4-ethylpiperazin-1-yl)ethoxy]-6,7-dihydro-5-oxa-7a-azadibenzo[a,e]azulene-9-carboxylic acid dihydrochloride]	< 100
CC(C)(C)OC(=O)N1CCC(CCOc2cccc3c2OCCn2c-3c(C3CCCCC3)c3ccc(C(=O)O)cc32)CC1 [Example 2-457, 4-[2-(1-tert-butoxycarbonylpiperidin-4-yl)ethoxy]-12-cyclohexyl-6,7-dihydro-5-oxa-7a-azadibenzo[a,e]azulene-9-carboxylic acid]	< 100
O=C(O)c1ccc2c(C3CCCCC3)c3n(c2c1)CCOc1c(OCCC2CCNCC2)cccc1-3 [Example 2-458, 12-cyclohexyl-4-[2-(piperidin-4-yl)ethoxy]-6,7-dihydro-5-oxa-7a-azadibenzo[a,e]azulene-9-carboxylic acid monohydrochloride]	< 100
CN1CCC(CCOc2cccc3c2OCCn2c-3c(C3CCCCC3)c3ccc(C(=O)O)cc32)CC1 [Example 2-459, 12-cyclohexyl-4-[2-(1-methylpiperidin-4-yl)ethoxy]-6,7-dihydro-5-oxa-7a-azadibenzo[a,e]azulene-9-carboxylic acid monohydrochloride]	< 100
O=C(O)c1ccc2c(C3CCCCC3)c3n(c2c1)CCOc1c(OCCCN2CCCCC2)cccc1-3 [Example 2-460, 12-cyclohexyl-4-[3-(piperidin-1-yl)propoxy]-6,7-dihydro-5-oxa-7a-azadibenzo[a,e]azulene-9-carboxylic acid monohydrochloride]	< 100
O=C(O)c1ccc2c(C3CCCCC3)c3n(c2c1)CCOc1c(OCCN2CCOCC2)cccc1-3 [Example 2-462, 12-cyclohexyl-4-[2-(morpholin-4-yl)ethoxy]-6,7-dihydro-5-oxa-7a-azadibenzo[a,e]azulene-9-carboxylic acid monohydrochloride]	< 100
CN(C)CCOc1cccc2c1OCCn1c-2c(C2CCCCC2)c2ccc(C(=O)O)cc21 [Example 2-463, 12-cyclohexyl-4-(2-dimethylaminoethoxy)-6,7-dihydro-5-oxa-7a-azadibenzo[a,e]azulene-9-carboxylic acid monohydrochloride]	< 100
O=C(O)c1ccc2c(C3CCCCC3)c3n(c2c1)CCOc1c(CCN2CCCCC2)cccc1-3 [Example 2-464, 12-cyclohexyl-4-[2-(piperidin-1-yl)ethyl]-6,7-dihydro-5-oxa-7a-azadibenzo[a,e]azulene-9-carboxylic acid monohydrochloride]	< 100

From patent publication US20070049593A1 (priority 2004, published 2007)
